Where two headings read alike, the source gives them in different places.
Legend:
[1] = system: VZV (varicella zoster virus); assay: Antiviral drug screen of EGCG, VZV; type: cell-based
[2] = pH 7.4; cited from earlier work
[3] = type: physicochemical
Text: UV-Visible Absorption Spectra vs. pH: EGCG solutions undergo an immediate spectral absorption shift as the pH increases from acidic to alkaline, with a change noted at pH 7 when a peak at 320 nm appears and the dominant phenol peak at 272 nm begins to decrease (FIG. 3A). The 320 nm peak likely represents the absorbance of the quinone form of EGCG. […] However, if the alkaline solution is re-acidified within minutes, the reaction is reversible. […] EPR vs. pH study of EGCG: The EPR and UV-visible spectra of EGCG, stabilized with 0.2 M MgCl2, were measured as a function of pH (i.e., 6.03, 6.54, 7.03, 7.57, 8.09, 8.56, 9.10, 9.56). A corresponding increase in a peak at ˜314 nm and a g=2 EPR spectrum occurred with increasing pH. […] This is in agreement with the known stabilizing effect on semiquinone free radicals by divalent cations like Mg^+2. […] The multiple peaks and valleys in FIGS. 5a and 5b are the fine structure detail of a high concentration radical solution. EPR detects unpaired spinning electrons due to the absorption of microwaves in an applied magnetic field. The peak splitting is due to interaction of the lone electron's spin magnetic field with environmental magnetic fields. […]

HSV-2 = HSV-2 inactivation: virus mixed with compound, infectivity titrated on CV1 cells (reduction of virus titer); type: cell-based, herpes simplex virus 2; details: varying pH
Method: (§1) Experimental—HSV-1 and 2: Herpes simplex viruses were titrated by inoculation of 10-fold dilutions (HSV-1 was inoculated into Vero cell cultures, and HSV-2 was inoculated into CV1 cultures) in 96-well microtiter tissue culture plates. A virus dilution (0.1 ml) in RPMI 1640 with 1% fetal bovine serum (MM) was inoculated into each well with three wells per dilution. The plates were kept for 2 to 5 days, depending on the virus, and examined daily for cytopathic effect. Virus titers were calculated by the method of Reed and Muench (1938).
(§2) About 10^5 50% tissue culture infective doses (TCID50s) of virus were mixed with varying concentrations (12.5, 25, 50, 75 and 100 μM) of reduced and oxidized EGCG in MM and incubated at 37° C. for 30 min. The following samples were tested: The reduced form of EGCG (#1); the partially oxidized form of EGCG (#2); the quinone or fully oxidized form of EGCG with the addition of a copper catalyst (#3); and quinone or fully oxidized form of EGCG with the addition of a zinc catalyst (#4). In Samples #3 and #4, the addition of the copper and zinc catalysts, respectively, raised the pH to 9.0-9.5. These compounds were totally oxidized, thereby taking a quinone form. […]
(§3) Virus mixed with MM alone was used as a control. […] The 10^−1 to 10^−5 dilutions were inoculated into monolayers of Vero or CV1 cells, and the virus titers were determined as described above. […]

Bcl-xL = Bcl-xL (Homo sapiens, UniProt Q07817); details: Kitada et al., 2003; cited from earlier work
HSV-1 = HSV-1 inactivation: virus mixed with compound, infectivity titrated on Vero cells (reduction of virus titer); type: cell-based, herpes simplex virus 1; details: varying pH
Method: as §1, §2, §3

HSV-1 (herpes simplex 1) = assay: Antiviral drug screen of EGCG, HSV-1; type: cell-based
[4] = type: physicochemical; remark: listed apart in the source
Text: An electrochemical cell was fabricated using a fine porosity glass frit in one-inch-diameter glass tubing. The electrochemical cell houses the counter electrode and keeps the Ag/AgCl reference electrode and platinum working electrode separate from the counter electrode. This addition to the system allowed the preparation of bulk solution. The working electrode and reference electrode compartment was continuously stirred using a small stir bar and a magnetic stirrer to minimize gradient effects at the working electrode. The EGCG solutions were oxidized using a positive potential to a visual end point. UV-visible spectral data were collected during these experiments, including the absorbance at 270 nm and 320 nm, corresponding to the phenol and quinone forms of EGCG, respectively. In addition, the open cell potential was recorded as experiments progressed. The active redox potentials and experimental endpoints were determined based on current and visual color changes to oligomers. Due to solution evaporation over time, the ratio of absorbance at 320 nm divided by the absorbance at 270 nm was determined in order to account for overall absorption increases. […] In addition, the visual change in solution color from clear to yellow and pink was also monitored as an indicator of degree of oxidation. Stirred EGCG solutions in 0.1 M phosphate buffer with 0.1 M KCl at pH 6.0 were monitored. The open circuit potential was initially 220 mV. […] A duplicate solution was left uncovered on the table next to the electrochemical cell as the control. After seven hours, no change in either solution at 270 and 320 nm was found. At this point the experimental potential was increased to 1000 mV for a further 16 hours (Table 3A). […] The pH of the solutions remained 6.0 throughout the experiment. All data support the forced oxidation of EGCG at pH 6.0. Solutions were allowed to sit for two more days to observe the stability of the electrochemically-induced changes (Table 3C). Solutions were pH-modified following electrochemical oxidation to observe stability. […] These samples were open to air, and no other precautions were taken to prevent oxidation by atmospheric oxygen.

[5] = system: HCMV (human cytomegalovirus); assay: Antiviral drug screen of EGCG, HCMV; type: cell-based
HSV-2 (herpes simplex 2) = assay: Antiviral drug screen of EGCG, HSV-2; type: cell-based
[6] = system: multidrug-resistant strain (33591) of Staphylococcus aureus; assay: Antibacterial assay, pre-incubation then colony-forming units counted; type: cell-based; details: for Killing of bacteria (cfu): 0.08% EGCG
Method: Antibacterial activity: EGCG was tested as an antibacterial agent against a multidrug-resistant strain (33591) of Staphylococcus aureus. After pre-incubating the cells with various concentrations of EGCG at pH 6, 7.5, and 8.5, cells were plated and colony-forming units (cfu) were counted as a measure of efficacy (FIG. 12).

[7] = cited from earlier work
Vero cells = assay: Toxicity to Vero cells, Cell Titer 96 Aqueous Cell Proliferation Assay
[8] = Toxicity, Neutral Red Uptake; details: host cells
[9] = Control (no potential), pH 6.0, 43 hours
[10] = Control (no potential), pH 6.0, 55 hours
[11] = Control (no potential), pH 6.0, 68 hours
[12] = Control (no potential, uncovered), pH 6.0, 23 hours
[13] = Experiment, pH 6.0, 800 mV 7 h then 1000 mV 16 h, 23 hours
[14] = Experiment, pH 6.0, 1500 mV from 23 h, 43 hours
[15] = Experiment, pH 6.0, 1500 mV from 23 h, 55 hours
[16] = Experiment, pH 6.0, 1500 mV from 23 h, 68 hours
[17] = Experiment, pH 6.0, left to sit after electrochemical oxidation, 73 hours
[18] = Experiment, pH 6.0, left to sit after electrochemical oxidation, 79 hours
[19] = Experiment, pH 6.0, left to sit after electrochemical oxidation, 120 hours
[20] = cyclic voltammetry (Kilmartin and Hsu, 2003)

Sequence of Bcl-xL (Q07817 whole entry): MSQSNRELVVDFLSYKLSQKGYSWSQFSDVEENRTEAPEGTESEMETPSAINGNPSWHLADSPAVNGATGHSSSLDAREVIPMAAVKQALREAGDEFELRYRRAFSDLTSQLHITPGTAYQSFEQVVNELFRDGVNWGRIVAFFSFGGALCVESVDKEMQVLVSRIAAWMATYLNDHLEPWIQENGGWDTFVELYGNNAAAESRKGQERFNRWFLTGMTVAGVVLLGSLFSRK

Compound: O=C(O[C@@H]1Cc2c(O)cc(O)cc2O[C@@H]1c1cc(O)c(O)c(O)c1)c1cc(O)c(O)c(O)c1 [EGCG, (−)-Epigallocatechingallate]
- EC-50 ([1]; VZV): 4.1 µg/mL
- EC-90 ([1]; VZV): >40 µg/mL
- CC-50 ([1]; cytotoxicity in VZV screen): >40 µg/mL
- Time to complete degradation [2]: 6 h
- Stability of 320 nm oxidation peak [3]: disappears within hours
- Decay time of semiquinone EPR signal ([3]; after basification, 0.2 M MgCl2, no electrochemical modulation): 30 min
- CC50, TOXICITY Neutral Red Uptake (host cells): CC50 > 200
- Effect of pH on activity against HSV-2 (FIG. 9) (HSV-2): greater antiviral activity at the more alkaline pH's
- Ki (Bcl-xL): nanomolar range
- Effect of pH on activity against HSV-1 (FIG. 9) (HSV-1): greater antiviral activity at the more alkaline pH's
- EC-50 (HSV-1 (herpes simplex 1); HSV-1): 24.1 µg/mL
- EC-90 (HSV-1 (herpes simplex 1); HSV-1): 121 µg/mL
- CC-50 (HSV-1 (herpes simplex 1); cytotoxicity in HSV-1 screen): 857 µg/mL
- Open circuit potential, initial ([4]; 0.1 M phosphate buffer with 0.1 M KCl, pH 6.0): 220 mV
- 320 nm/270 nm [4, 9]: 0.174
- Absorbance 270 nm [4, 9]: 0.448
- Absorbance 320 nm [4, 9]: 0.078
- 320 nm/270 nm [4, 10]: 0.178
- Absorbance 270 nm [4, 10]: 0.471
- Absorbance 320 nm [4, 10]: 0.084
- 320 nm/270 nm [4, 11]: 0.189
- Absorbance 270 nm [4, 11]: 0.438
- Absorbance 320 nm [4, 11]: 0.083
- 320 nm/270 nm [4, 12]: 0.170
- Absorbance 270 nm [4, 12]: 0.424
- Absorbance 320 nm [4, 12]: 0.072
- 320 nm/270 nm [4, 13]: 0.256
- Absorbance 270 nm [4, 13]: 0.418
- Absorbance 320 nm [4, 13]: 0.107
- 320 nm/270 nm [4, 14]: 0.396
- Absorbance 270 nm [4, 14]: 0.432
- Absorbance 320 nm [4, 14]: 0.171
- 320 nm/270 nm [4, 15]: 0.467
- Absorbance 270 nm [4, 15]: 0.422
- Absorbance 320 nm [4, 15]: 0.197
- 320 nm/270 nm [4, 16]: 0.522
- Absorbance 270 nm [4, 16]: 0.429
- Absorbance 320 nm [4, 16]: 0.224
- 320 nm/270 nm [4, 17]: 0.533
- Absorbance 270 nm [4, 17]: 0.430
- Absorbance 320 nm [4, 17]: 0.229
- 320 nm/270 nm [4, 18]: 0.538
- Absorbance 270 nm [4, 18]: 0.426
- Absorbance 320 nm [4, 18]: 0.229
- 320 nm/270 nm [4, 19]: 0.546
- Absorbance 270 nm [4, 19]: 0.436
- Absorbance 320 nm [4, 19]: 0.238
- Stability of electrochemically oxidized solution (320 nm absorbance) ([4]; pH 6): stable for over two days
- Oxidation of control sample ([4]; pH 6.0, no potential, uncovered, 23 hours): did not oxidize
- Stability of pH-modified solution after electrochemical oxidation (FIG. 14) ([4]; pH 6.26): relatively stable after 7 days
- EC-50 ([5]; HCMV): 6.9 µg/mL
- EC-90 ([5]; HCMV): 40 µg/mL
- CC-50 ([5]; cytotoxicity in HCMV screen): >40 µg/mL
- EC-50 (HSV-2 (herpes simplex 2); HSV-2): 7.6 µg/mL
- EC-90 (HSV-2 (herpes simplex 2); HSV-2): 98.6 µg/mL
- CC-50 (HSV-2 (herpes simplex 2); cytotoxicity in HSV-2 screen): 857 µg/mL
- Killing of bacteria (cfu) ([6]; pH 7.5): effective at killing nearly all the bacteria
- Killing of bacteria (cfu) ([6]; pH 8.5): effective at killing nearly all the bacteria
- Bactericidal effect (cfu) ([6]; 0.4-0.8% EGCG, pH 6, 7.5 and 8.5): strongly bactericidal
- Effectiveness (cfu) ([6]; concentrations higher than 0.4-0.8% EGCG): less effective
- Oxidation peak potential, first range [7, 20]: 105 mV
- Oxidation peak potential, second range [7, 20]: 213 mV
- Reduction potential ([7]; pH 7, versus a normal hydrogen electrode): 430 mV

Compound: O=C(O[C@@H]1Cc2c(O)cc(O)cc2O[C@H]1c1ccc(O)c(O)c1)c1cc(O)c(O)c(O)c1 [CG, catechin-3 gallate]
- Ki (Bcl-xL): nanomolar range

Compound: O=C(O[C@@H]1Cc2c(O)cc(O)cc2O[C@H]1c1cc(O)c(O)c(O)c1)c1cc(O)c(O)c(O)c1 [GCG, gallocatechin-3 gallate]
- Ki (Bcl-xL): nanomolar range

Compound: O=C(O[C@@H]1Cc2c(O)cc(O)cc2O[C@@H]1c1cc(O)c(O)c(O)c1)c1cc(O)c(O)c(O)c1 [Reduced EGCG]
- Cell Titer 96 assay reading, mean ± SD (Vero cells; 50 μM, 24 hours after addition): 0.753 ± 0.027
- Cell Titer 96 assay reading, mean ± SD (Vero cells; 50 μM, 48 hours after addition): 0.750 ± 0.033
- Cell Titer 96 assay reading, mean ± SD (Vero cells; 75 μM, 24 hours after addition): 0.685 ± 0.052
- Cell Titer 96 assay reading, mean ± SD (Vero cells; 75 μM, 48 hours after addition): 0.706 ± 0.026
- Cell Titer 96 assay reading, mean ± SD (Vero cells; 100 μM, 24 hours after addition): 0.700 ± 0.043
- Cell Titer 96 assay reading, mean ± SD (Vero cells; 100 μM, 48 hours after addition): 0.705 ± 0.019

Compound: epicatechin-3 gallate [ECG]
- Ki (Bcl-xL): nanomolar range

Compound: Nc1nc2c(ncn2COCCO)c(=O)[nH]1 [ACV]
- CC50 [8]: > 100 µg/mL
